For test [1], the target named is T1, active site of yeast BC domain (Saccharomyces cerevisiae, UniProt Q00955).
T1 construct: Residues 2-581 of yeast ACC were sub-cloned into the pET28a vector; made in house; host or cells: E. coli BL21(DE3) Rosetta
Description: binding of fluorescent ATP analog (Mant-ATP) to active site. The note with it: preliminary experiments, unpublished data.

The target in test [2] is T2, S77Y mutant yeast BC domain (Saccharomyces cerevisiae, UniProt Q00955, S77Y).
T2 construct: Residues 2-581 of yeast ACC were sub-cloned into the pET28a vector; made in house; host or cells: E. coli
Description: radioactive binding assay, S77Y mutant. The note with it: up to 60 nM soraphen A, 10 nM protein, read-out: Kd (nM) (radiactive assay). How it is done:
(§1) The mutants were designed based on the structural information and made with the QuikChange kit (Stratagene). The mutants were sequenced, expressed in E. coli, and purified following the same protocol as that for the wild-type BC domain. The affinity of soraphen for the mutants were assessed using a radioactive binding assay (Weatherly et al., supra (2004)).

The target of test [3] is T3, K73R mutant yeast BC domain (Saccharomyces cerevisiae, UniProt Q00955, K73R).
T3 construct: Residues 2-581 of yeast ACC were sub-cloned into the pET28a vector; made in house; host or cells: E. coli
Description: fluorescence-based binding assay, K73R mutant. How it is done:
(§2) We have developed a fluorescence-based binding assay using our structural information, which monitored the increase in Trp emission upon soraphen binding. The binding buffer initially contained 100 mM Tris (pH 8.0), 100 mM NaCl, and 50 nM wild-type or mutant enzyme, and increasing concentrations of soraphen A was titrated into the solution. The observed binding curve is fitted using conventional methods or the tight-binding model where appropriate.
(§3) We next developed a fluorescence-based binding assay using the structural information. […] There is also a slight blue shift in the fluorescence emission maximum upon soraphen binding. The observed increase in Trp fluorescence as a function of soraphen concentration can be easily fit to a one-site binding model (FIG. 5), confirming that there is a single binding site for soraphen in the BC domain. The binding affinity obtained from this fluorescence assay is generally in good agreement with that based on the radioactive binding assay (Table 3) (Weatherly et al., supra (2004)). Compared to the radioactive assay, the fluorescence assay has the advantage that it can measure affinity between 1 nM to 10 μM, whereas the radioactive assay is limited to Kd values […] ˜50 nM.

In test [4] the target is T4, F510I mutant yeast BC domain (Saccharomyces cerevisiae, UniProt Q00955, F510I).
T4 construct: Residues 2-581 of yeast ACC were sub-cloned into the pET28a vector; made in house; host or cells: E. coli
As to the kind of experiment: fluorescence-based binding assay, F510I mutant. As to the method:
as §2, §3

The target in test [5] is T5, Wild-type yeast BC domain (Saccharomyces cerevisiae, UniProt Q00955).
T5 construct: Residues 2-581 of yeast ACC were sub-cloned into the pET28a vector; made in house; host or cells: E. coli BL21(DE3) Rosetta
Description: native gel electrophoresis assay, wild-type BC domain. The conditions noted are these: 12% native gel. As to the method: (§4) FIG. 7. […] Schematic drawing of the dimer of E. coli BC subunit in complex with ATP (Thoden et al., supra 2000). The dimer axis is indicated with the magenta oval. […] (B). Native gel (12%) showing the electrophoretic mobility of wild-type and K73R mutant of yeast BC domain in the absence or presence of soraphen. […] Each lane was loaded with 20 μg of protein in 10 μl.
(§5) To obtain experimental evidence for the effects of soraphen A on the oligomerization state of BC domains, we examined the mobility of the yeast BC domain in a native gel electrophoresis assay.

In the next test the test system is ACC. The note with it: kinetic data, literature; cited from earlier work.
Test [6] deals with T6, K73R mutant of the BC domain (Saccharomyces cerevisiae, UniProt Q00955, K73R).
T6 construct: Residues 2-581 of yeast ACC were sub-cloned into the pET28a vector; made in house; host or cells: E. coli
As to the kind of experiment: native gel electrophoresis assay, K73R mutant. The note with it: K73R mutant of yeast BC domain, 12% native gel. As to the method: as §4, §5

Test [7] deals with yeast ACC Ser77 to Tyr mutant (Saccharomyces cerevisiae, UniProt Q00955, S77Y). The conditions noted are these: yeast ACC with Ser77 mutated to Tyr, literature; cited from earlier work.
The target of test [8] is BC domain of eukaryotic ACCs. The note with it: literature; cited from earlier work.
Test [9] addresses T5, Wild-type yeast BC domain. Description: radioactive binding assay, wild-type yeast BC domain. The note with it: read-out: Kd (nM) (radiactive assay). How it is done: as §1
Another test addresses T7, BC domain of human ACC1 (Homo sapiens, UniProt Q13085).
T7 construct: the BC domains of human ACC1 and ACC2
Description: binding to BC domain of human ACC1 (unpublished results).

Test [10] has as its target T4, F510I mutant yeast BC domain. Description: radioactive binding assay, F510I mutant. The note with it: read-out: Kd (nM) (radiactive assay). As to the method: as §1
Another test concerns the target T8, BC domain of human ACC2 (Homo sapiens, UniProt O00763).
T8 construct: the BC domains of human ACC1 and ACC2
Description: binding to BC domain of human ACC2 (unpublished results).

For test [11], the target named is T3, K73R mutant yeast BC domain. As to the kind of experiment: radioactive binding assay, K73R mutant. The conditions noted are these: up to 60 nM soraphen A, 10 nM protein, read-out: Kd (nM) (radiactive assay). As to the method: as §1
Test [12] has as its target T9, I69E mutant yeast BC domain (Saccharomyces cerevisiae, UniProt Q00955, I69E).
T9 construct: Residues 2-581 of yeast ACC were sub-cloned into the pET28a vector; made in house; host or cells: E. coli
As to the kind of experiment: radioactive binding assay, I69E mutant. The conditions noted are these: up to 60 nM soraphen A, 10 nM protein, read-out: Kd (nM) (radiactive assay). As to the method: as §1

Test [13] addresses T10, W487R mutant yeast BC domain (Saccharomyces cerevisiae, UniProt Q00955, W487R).
T10 construct: Residues 2-581 of yeast ACC were sub-cloned into the pET28a vector; made in house; host or cells: E. coli
As to the kind of experiment: fluorescence-based binding assay, W487R mutant. The note with it: W487R mutant (data not shown). How it is done: as §2, §3

For the next test, the system named is bacterial BC subunits. The note with it: literature; cited from earlier work.
In test [14] the target is T5, Wild-type yeast BC domain. As to the kind of experiment: fluorescence-based binding assay (Trp emission), wild-type. The conditions noted are these: 50 nM enzyme. How it is done: as §2, §3
The target in test [15] is T9, I69E mutant yeast BC domain. As to the kind of experiment: fluorescence-based binding assay, I69E mutant. The note with it: 50 nM enzyme. As to the method:
as §2, §3

For test [16], the target named is T11, N485G mutant yeast BC domain (Saccharomyces cerevisiae, UniProt Q00955, N485G).
T11 construct: Residues 2-581 of yeast ACC were sub-cloned into the pET28a vector; made in house; host or cells: E. coli
Description: fluorescence-based binding assay, N485G mutant. The note with it: 50 nM enzyme. How it is done:
as §2, §3

Test [17] has as its target T11, N485G mutant yeast BC domain. Description: radioactive binding assay, N485G mutant. The conditions noted are these: read-out: Kd (nM) (radiactive assay). How it is done:
as §1

For test [18], the target named is T12, E477R mutant yeast BC domain (Saccharomyces cerevisiae, UniProt Q00955, E477R).
T12 construct: Residues 2-581 of yeast ACC were sub-cloned into the pET28a vector; made in house; host or cells: E. coli
Description: radioactive binding assay, E477R mutant. The conditions noted are these: read-out: Kd (nM) (radiactive assay). How it is done:
as §1

The target in test [19] is T10, W487R mutant yeast BC domain. Description: radioactive binding assay, W487R mutant. The conditions noted are these: up to 60 nM soraphen A, 10 nM protein, read-out: Kd (nM) (radiactive assay). How it is done:
as §1

For test [20], the target named is T12, E477R mutant yeast BC domain. Description: fluorescence-based binding assay, E477R mutant. The note with it: 50 nM enzyme. How it is done:
as §2, §3

In test [21] the target is K73R mutation of yeast ACC (Saccharomyces cerevisiae, UniProt Q00955, K73R). The conditions noted are these: cited from earlier work.
For test [22] the following is noted: literature SAR, in words; cited from earlier work.

A value given as a limit tells only on which side of the number the result lay.

T5 sequence (Q00955 2-581): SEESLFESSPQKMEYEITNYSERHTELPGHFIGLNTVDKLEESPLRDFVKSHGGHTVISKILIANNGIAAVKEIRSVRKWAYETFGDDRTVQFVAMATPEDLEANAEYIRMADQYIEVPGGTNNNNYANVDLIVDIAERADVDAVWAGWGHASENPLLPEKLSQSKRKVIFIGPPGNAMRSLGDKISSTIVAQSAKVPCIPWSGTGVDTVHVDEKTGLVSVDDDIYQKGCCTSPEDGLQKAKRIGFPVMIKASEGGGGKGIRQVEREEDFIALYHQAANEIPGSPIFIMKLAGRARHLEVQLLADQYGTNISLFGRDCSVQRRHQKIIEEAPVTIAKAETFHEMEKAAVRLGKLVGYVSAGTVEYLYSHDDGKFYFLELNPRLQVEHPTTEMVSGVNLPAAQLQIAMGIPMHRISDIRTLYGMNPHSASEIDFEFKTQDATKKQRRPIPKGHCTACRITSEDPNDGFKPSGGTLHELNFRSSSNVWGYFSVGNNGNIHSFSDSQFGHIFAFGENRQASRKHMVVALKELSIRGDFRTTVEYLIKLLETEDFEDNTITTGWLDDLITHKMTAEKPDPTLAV
T3 sequence (Q00955 2-581 K73R): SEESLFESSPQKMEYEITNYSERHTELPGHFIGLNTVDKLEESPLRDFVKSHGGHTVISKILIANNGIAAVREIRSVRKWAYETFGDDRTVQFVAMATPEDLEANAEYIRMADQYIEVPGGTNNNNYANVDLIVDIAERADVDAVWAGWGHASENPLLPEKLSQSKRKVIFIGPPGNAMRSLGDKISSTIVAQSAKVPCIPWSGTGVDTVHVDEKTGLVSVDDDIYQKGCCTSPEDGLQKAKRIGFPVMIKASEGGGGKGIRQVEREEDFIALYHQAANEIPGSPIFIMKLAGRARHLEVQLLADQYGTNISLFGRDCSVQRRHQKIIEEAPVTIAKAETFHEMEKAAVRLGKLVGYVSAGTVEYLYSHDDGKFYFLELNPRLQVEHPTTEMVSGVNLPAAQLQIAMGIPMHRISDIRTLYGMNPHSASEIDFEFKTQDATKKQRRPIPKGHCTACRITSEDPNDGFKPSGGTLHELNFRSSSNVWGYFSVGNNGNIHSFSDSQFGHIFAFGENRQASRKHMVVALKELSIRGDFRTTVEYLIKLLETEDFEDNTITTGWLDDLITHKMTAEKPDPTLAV
T4 sequence (Q00955 2-581 F510I): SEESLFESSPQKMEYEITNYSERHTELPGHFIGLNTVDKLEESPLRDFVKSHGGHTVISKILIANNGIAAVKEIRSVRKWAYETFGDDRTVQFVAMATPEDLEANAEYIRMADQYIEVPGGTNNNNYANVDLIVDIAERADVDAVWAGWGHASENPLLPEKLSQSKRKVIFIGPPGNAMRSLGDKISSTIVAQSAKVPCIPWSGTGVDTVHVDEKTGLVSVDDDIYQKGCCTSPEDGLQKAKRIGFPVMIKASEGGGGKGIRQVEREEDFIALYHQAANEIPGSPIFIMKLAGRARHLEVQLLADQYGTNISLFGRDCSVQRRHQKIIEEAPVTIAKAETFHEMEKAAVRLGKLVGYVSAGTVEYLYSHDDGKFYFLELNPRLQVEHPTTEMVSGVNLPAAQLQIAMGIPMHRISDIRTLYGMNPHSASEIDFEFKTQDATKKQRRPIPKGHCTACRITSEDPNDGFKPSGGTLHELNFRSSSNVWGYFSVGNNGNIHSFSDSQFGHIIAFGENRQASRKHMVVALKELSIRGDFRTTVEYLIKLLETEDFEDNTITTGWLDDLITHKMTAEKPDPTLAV
T9 sequence (Q00955 2-581 I69E): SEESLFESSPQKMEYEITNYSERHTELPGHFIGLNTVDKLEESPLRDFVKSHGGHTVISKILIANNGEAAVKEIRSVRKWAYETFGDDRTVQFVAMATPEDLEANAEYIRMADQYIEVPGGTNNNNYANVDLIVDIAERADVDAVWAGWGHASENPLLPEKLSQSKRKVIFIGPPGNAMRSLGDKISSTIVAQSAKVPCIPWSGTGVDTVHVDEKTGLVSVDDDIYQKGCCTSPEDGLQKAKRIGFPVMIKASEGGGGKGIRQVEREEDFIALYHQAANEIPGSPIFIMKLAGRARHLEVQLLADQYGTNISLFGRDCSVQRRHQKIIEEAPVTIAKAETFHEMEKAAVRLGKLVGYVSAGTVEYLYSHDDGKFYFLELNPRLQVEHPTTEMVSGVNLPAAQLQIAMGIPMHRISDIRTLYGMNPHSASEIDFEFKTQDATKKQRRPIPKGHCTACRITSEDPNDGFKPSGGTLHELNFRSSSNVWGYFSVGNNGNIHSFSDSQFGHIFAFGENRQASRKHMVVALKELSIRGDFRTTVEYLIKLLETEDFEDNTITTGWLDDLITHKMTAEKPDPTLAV
T10 sequence (Q00955 2-581 W487R): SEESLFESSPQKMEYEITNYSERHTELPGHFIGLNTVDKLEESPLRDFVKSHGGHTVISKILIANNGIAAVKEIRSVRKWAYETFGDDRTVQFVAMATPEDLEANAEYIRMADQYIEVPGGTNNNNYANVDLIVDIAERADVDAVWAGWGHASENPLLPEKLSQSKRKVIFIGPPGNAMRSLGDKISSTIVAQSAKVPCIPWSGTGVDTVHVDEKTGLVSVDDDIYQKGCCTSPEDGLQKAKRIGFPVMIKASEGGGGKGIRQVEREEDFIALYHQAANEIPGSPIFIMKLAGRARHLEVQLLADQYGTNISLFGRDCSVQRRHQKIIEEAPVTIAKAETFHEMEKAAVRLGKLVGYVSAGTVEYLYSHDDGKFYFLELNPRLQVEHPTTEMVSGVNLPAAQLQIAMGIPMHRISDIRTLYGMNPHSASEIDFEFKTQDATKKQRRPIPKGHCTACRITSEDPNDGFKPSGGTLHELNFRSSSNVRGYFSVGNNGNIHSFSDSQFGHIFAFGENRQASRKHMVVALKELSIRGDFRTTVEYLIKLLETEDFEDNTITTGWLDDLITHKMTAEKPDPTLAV
T12 sequence (Q00955 2-581 E477R): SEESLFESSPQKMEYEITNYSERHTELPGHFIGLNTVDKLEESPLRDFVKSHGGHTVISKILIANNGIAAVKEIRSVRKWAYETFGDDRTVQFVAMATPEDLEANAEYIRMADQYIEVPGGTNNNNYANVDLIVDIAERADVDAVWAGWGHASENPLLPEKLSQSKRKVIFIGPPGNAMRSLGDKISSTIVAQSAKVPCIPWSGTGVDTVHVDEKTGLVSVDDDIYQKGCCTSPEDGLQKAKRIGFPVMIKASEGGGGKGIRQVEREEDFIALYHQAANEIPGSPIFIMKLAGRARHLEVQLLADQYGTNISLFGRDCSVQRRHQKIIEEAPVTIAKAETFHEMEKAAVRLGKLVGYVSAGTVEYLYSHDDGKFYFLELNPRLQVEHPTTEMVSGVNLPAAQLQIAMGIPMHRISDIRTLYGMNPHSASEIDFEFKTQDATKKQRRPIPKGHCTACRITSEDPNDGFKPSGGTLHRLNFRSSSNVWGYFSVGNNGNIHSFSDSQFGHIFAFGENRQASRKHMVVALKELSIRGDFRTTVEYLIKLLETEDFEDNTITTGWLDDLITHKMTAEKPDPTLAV
T11 sequence (Q00955 2-581 N485G): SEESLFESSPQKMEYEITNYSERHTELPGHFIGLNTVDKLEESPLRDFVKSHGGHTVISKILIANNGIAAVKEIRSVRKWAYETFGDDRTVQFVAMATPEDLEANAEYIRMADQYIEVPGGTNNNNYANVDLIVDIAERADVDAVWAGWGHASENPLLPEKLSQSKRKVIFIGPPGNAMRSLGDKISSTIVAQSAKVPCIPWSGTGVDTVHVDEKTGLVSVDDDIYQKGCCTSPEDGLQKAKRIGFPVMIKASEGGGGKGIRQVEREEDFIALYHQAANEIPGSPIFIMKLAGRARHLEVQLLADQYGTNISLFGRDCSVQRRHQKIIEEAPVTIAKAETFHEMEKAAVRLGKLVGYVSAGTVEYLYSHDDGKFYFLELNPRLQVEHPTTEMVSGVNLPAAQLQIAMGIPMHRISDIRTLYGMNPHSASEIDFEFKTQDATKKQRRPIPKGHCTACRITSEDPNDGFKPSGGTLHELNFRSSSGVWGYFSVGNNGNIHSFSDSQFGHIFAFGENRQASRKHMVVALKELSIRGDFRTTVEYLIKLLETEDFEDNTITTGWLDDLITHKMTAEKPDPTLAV
T1 sequence (Q00955 2-581): as the sequence (Q00955 2-581) above

`CO[C@H]1CCCC[C@@H](c2ccccc2)OC(=O)[C@@H](C)[C@@]2(O)O[C@H]([C@@H](C)[C@H](O)[C@H]2OC)[C@@H](C)/C=C/[C@H]1OC` [soraphen A]: the “interference with the binding of Mant-ATP to the active site” value in test [1] is reported as “does not interfere”. The dissociation constant Kd (usually the constant that tells how readily two partners part at equilibrium) in test [2] was more than 60 nM; in test [3] (K73R yeast BC domain, 50 nM enzyme) it was 2010 ± 174 nM; in [4] (F510I yeast BC domain, 50 nM enzyme) it was 10.6 ± 4.8 nM; in [8], approximately 1 nM; in [9], 2 ± 0.9 nM; on BC domain of human ACC1 it was approximately 1 nM. For the same molecule, the Kd in test [10] is 5.7 ± 1 nM; at BC domain of human ACC2, approximately 1 nM; in test [11], more than 60 nM; in test [12], more than 60 nM; in test [14] it was 3.9 ± 0.7 nM; in [15], 104 ± 18 nM. Besides, the Kd is 55 ± 4 nM in [16]; 2.7 ± 0.4 nM in [17]; 24.7 ± 10.4 nM in [18]; more than 60 nM in test [19]; 274 ± 30 nM in test [20]. The “Kd (in words)” value in test [3] (K73R mutant) is recorded as “micromolar range”. In addition, in test [3] (K73R mutant versus wild-type), the “loss in affinity for soraphen” value came out at 500 fold. The “impact on the affinity for soraphen” value in test [4] (F510I mutation versus wild-type) is reported as “minor impact”. In addition, the “electrophoretic mobility in native gel in the presence of soraphen A” value in test [5] was “a sharp band is observed, with the fastest migrating speed”; in [6], “not affected”. In the test on ACC, the “mode of inhibition with respect to the substrates of ACC” value was “noncompetitive”. The “sensitivity of the enzyme to soraphen A” value in test [7] is on record as “insensitive”. Also, in [13], the “fluorescence change in the presence of soraphen” value is on record as “little fluorescence change”. The “effect on bacterial BC subunits” value in the test with bacterial BC subunits is reported as “no effect”. Also, in [21], the “resistance to soraphen A” value is recorded as “resistance”.

Consider soraphen F, for which, in [22], the “activity relative to soraphen A” value was “moderate loss of activity”.

Values taken from US20090215627A1, “Crystal Structure of Biotin Carboxylase (Bc) Domain of Acetyl-Coenzyme a Carboxylase and Methods of Use Thereof” (priority 2004, published 2009).
